83 compounds from the SangsterLogP compilation can be followed below.

Broadly, the logP is the decadic logarithm of the partition coefficient of the neutral form, usually between octanol and water. Read a high logP as higher lipophilicity. What is called logD is the decadic logarithm of the distribution of all forms, ionised or not, between an organic phase and buffer at a given pH. Read a high logD as a more lipophilic compound.

A short description of one data set: method code SF-HPLC, from DOI: 10.1002/ps.2780310207.
Conditions: not given
The compound `CCCC(Cn1cncn1)c1ccc(F)cc1` (stereo not drawn) displayed a logP of 2.01.

Consider `CC(C)(Cc1ccccn1)c1ccc(F)cc1`, for which the logP stood at 2.97.

Take `CCCC(Cc1ccccn1)c1ccc(F)cc1` (stereo not drawn): the log partition coefficient (logP) amounted to 2.61.

Compound `Fc1ccc(C2(Cn3cncn3)CC2)cc1` yielded a logP of 1.54.

A further data set can be described thus: method code SF-AS, from DOI: 10.1007/bf01648987.
Conditions: not given
In turn, `CCN(CCOC(C)=O)c1ccccc1` yielded a logP of 2.04.

On to `CC(=O)OC(OC(C)=O)c1ccccc1`, for which the logP turned out to be 1.62.

Compound `CC(=O)N(CCCl)c1ccc(CC(=O)O)cc1` returned a logP of 1.2.

Compound `CC(=O)Oc1cccc2ccccc12` displayed a logP of 2.78.

A further data set is described as follows: method code SF-HPLC, from DOI: 10.1023/a:1016462801968, PMID: 3334410.
Conditions: not given
In turn, `COC(=O)OCC(COC(=O)OC)OCn1cnc2c(=O)[nH]c(N)nc21` returned a logP of -0.88.

Compound `CCC(=O)OCC(COC(=O)CC)OCn1cnc2c(=O)[nH]c(N)nc21` had a logP of -0.14.

Turning to `Nc1nc2c(ncn2COC(CO)CO)c(=O)[nH]1`, the logP was -1.66.

Assay in the next data set: not given
Conditions: not given
Regarding `CCCCOc1ccc(OCCCN2CCOCC2)cc1`, the logP turned out to be 3.56.

Compound `COc1ccc(CCN2CCC(Nc3nc4ccccc4n3Cc3ccc(F)cc3)CC2)cc1` displayed a logP of 5.7.

The compound `CNC1CCC(c2ccc(Cl)c(Cl)c2)c2ccccc21` (stereo not drawn) yielded a logP of 4.3.

`NS(=O)(=O)c1cc2c(cc1Cl)N=C(CSCc1ccccc1)NS2(=O)=O` registered a logP of 1.73.

A short description of the next data set: method code SF-HPLC, from DOI: 10.1016/j.bmcl.2010.02.057, PMID: 20231095. The note with it: pH 7.4.
For the compound `CC(OC(=O)c1sc2cc(O)c(O)cc2c1Cl)OC(=O)C(C)C` (stereo not drawn), the logD was 3.02.

In turn, `CCCOC(=O)c1sc2cc(O)c(O)cc2c1Cl` returned a logD of 2.45.

The compound `CC(C)C(=O)OCOC(=O)c1sc2cc(O)c(O)cc2c1Cl` displayed a logD of 2.91.

For the compound `COC(=O)c1sc2cc(O)c(O)cc2c1Cl`, the logD came out at 1.51.

The nature of another data set: method code SF, from PMID: 718082.
Conditions: not given
`CC(=O)Nc1c(I)c(NC(C)=O)c(I)c(C(=O)O)c1I` came in with a logP of -1.05.

For `OC[C@H]1O[C@@H](Oc2cc(O[C@@H]3O[C@H](CO)[C@@H](O)[C@H](O)[C@H]3O)c(I)c(O[C@@H]3O[C@H](CO)[C@@H](O)[C@H](O)[C@H]3O)c2I)[C@H](O)[C@@H](O)[C@@H]1O`, the logP is -2.22.

`CNC(=O)c1c(I)c(NC(C)=O)c(I)c(OCC2OC(O)C(O)C(O)C2O)c1I` (stereo not drawn): the logP was -1.26.

In turn, `CNC(=O)c1c(I)c(NC(C)=O)c(I)c(C(=O)O)c1I` yielded a lipophilicity (logP) of -1.15.

Assay in the next data set: not given
Conditions: not given
This is another data set of the same source.
For the compound `COc1ccc(-c2cc(C#N)c(Cl)nc2C)cc1`, the logP was determined as 3.38.

`Cc1nc(Cl)c(C#N)cc1-c1ccccc1` registered a lipophilicity (logP) of 3.24. This logP and that of the compound before are within 0.2 log units of each other.

Consider `COc1ccc(-c2cc(C#N)c(N3CCOCC3)nc2C)cc1`, for which the logP is 4.4.

On to `Cc1nc(N2CCOCC2)c(C#N)cc1-c1ccccc1`, for which the log partition coefficient (logP) was 3.65.

Assay in another data set: not given
Conditions: not given
This is another data set of the same source.
As to `CCCN1CC(C)n2c(nc3ccccc3c2=O)C1C` (stereo not drawn), the logP turned out to be 1.45.

On to `CCCN1CCn2c(nc3ccccc3c2=O)C1C` (stereo not drawn), for which the logP is 1.07.

`CC1c2nc3ccccc3c(=O)n2C(C)CN1C` (stereo not drawn): the logP stood at 0.44.

Compound `CCN1CC(C)n2c(nc3ccccc3c2=O)C1C` (stereo not drawn) came in with a logP of 1.58.

Assay in the next data set: not given
Conditions: not given
The source holds these as a separate data set.
For the compound `CN1CCc2cccc(Cl)c2CC1`, the logP came to 2.92.

For `NC(=O)CCN1CCc2cccc(Cl)c2CC1`, the lipophilicity (logP) is 1.64.

Turning to `NC(=O)NCCN1CCc2cccc(Cl)c2CC1`, the logP was 2.07.

Compound `C=CCN1CCc2cccc(Cl)c2CC1` showed a logP of 3.3.

The next data set can be described thus: method code SF-AS, from DOI: 10.1016/0021-9673(94)89049-8. As to conditions: pH 7.0.
Take `Nc1ncnc2c1ncn2[C@@H]1O[C@H](CCl)[C@@H](O)[C@H]1O`: the logD is -0.06.

On to `Nc1nc(F)nc2c1ncn2[C@@H]1O[C@H](CO)[C@@H](O)[C@H]1O`, for which the logD is -0.8.

`Nc1nc(Cl)nc2c1ncn2[C@H]1C[C@H](O)[C@@H](CO)O1` displayed a logD of 0.03.

For the compound `Nc1nc(Cl)nc2c1ncn2C1OC(CO)C(O)C1O` (stereo not drawn), the pH-dependent lipophilicity (logD) is -0.37.

Assay in a further data set: not given
Conditions: not given
The source holds these as a separate data set.
`O=C1CN=C(c2ccccc2Br)c2cc(Br)ccc2N1` returned a logP of 3.3.

As to `O=C1CN=C(c2ccc(Cl)cc2)c2cc(Br)ccc2N1`, the logP worked out at 3.78.

As to `O=C1CN=C(c2cccc(Cl)c2)c2ccc(Br)cc2N1`, the lipophilicity (logP) was found to be 3.63.

`O=C1CN=C(c2ccc(Br)cc2)c2cc(Br)ccc2N1` returned a logP of 4.08.

Assay in another data set: not given
Conditions: not given
This is another data set of the same source.
With `CNC(=O)ON=C(CS(C)=O)C(C)(C)C` (stereo not drawn), the logP was determined as 2.75.

In the case of `COP(N)(=S)Oc1ccccc1C(=O)OC(C)C` (stereo not drawn), the logP stood at 2.7.

For `COc1ccc(C(OC(C)=O)C(Cl)(Cl)Cl)cc1` (stereo not drawn), the logP was 3.72.

Consider `CC1(C)[C@H](C(=O)OCc2coc(Cc3ccccc3)c2)[C@@H]1/C=C1/CCSC1=O`, for which the logP was determined as 4.31.

A short description of the next data set: method code SF-AS, from DOI: 10.1080/10826076.2011.619030.
Conditions: not given
The compound `CC1(C)OC2C(CO)OC(n3ccc(=O)[nH]c3=O)C2O1` (stereo not drawn) showed a logP of -0.47.

`CC1(C)OC2C(CO)OC(n3ccc(=O)n(Cc4ccccc4)c3=O)C2O1` (stereo not drawn) came in with a logP of 1.82.

As for `CC1(C)OC2C(CO)OC(n3ccc(=O)n(C(=O)c4ccccc4)c3=O)C2O1` (stereo not drawn), the logP is 0.95.

Take `O=C(OCc1ccccc1)OC1C(CO)OC(n2ccc(=O)[nH]c2=O)C1OC(=O)OCc1ccccc1` (stereo not drawn): the logP was 2.96.

A short description of a further data set: method code SF-AS, from PMID: 578762. As to conditions: pH 5.9.
`CCOC(=O)C=C1NC(=O)C(N2CCCCC2)S1` (stereo in doubt) had a logD of 2.3.

The same data set, now with this note: pH 7.4.
Regarding `CCOC(=O)/C=C1\SC(N(CC)CC)C(=O)N1C` (stereo not drawn), the logD amounted to 2.2.

Compound `CCOC(=O)/C=C1/SC(N2CCCCC2)C(=O)N1CC` (stereo not drawn) gave a logD of 2.65.

On to `CCCN1C(=O)C(N2CCCCC2)S/C1=C\C(=O)OCC` (stereo not drawn), for which the logD turned out to be 2.93.

Assay in another data set: not given
Conditions: not given
This is another data set of the same source.
Regarding `c1ccc2c(c1)nnn2C12CC3CC1CCC2C3` (stereo not drawn), the logP was determined as 3.52.

Turning to `c1ccc(C23CC4CC(CC(C4)C2)C3)cc1`, the logP came out at 5.55.

As to `c1nnn(C23CC4CC(CC(C4)C2)C3)n1`, the logP came out at 2.95.

For the compound `c1ccc2nn(C34CC5CC(CC(C5)C3)C4)cc2c1`, the log partition coefficient (logP) stood at 3.68.

The next data set is described as follows: method code SF-RC, from DOI: 10.1021/jm00238a003, PMID: 1120999. As to conditions: pH 7.0.
On to `CC(C)C(=O)OCC1OC(n2ccc(N)nc2=O)C(O)C1O` (stereo not drawn), for which the logD was found to be 0.3.

Consider `CCCCCCCC(=O)OC[C@H]1O[C@@H](n2ccc(N)nc2=O)[C@@H](O)[C@@H]1O`, for which the logD came to 1.6.

The compound `Nc1ccn(C2OC(COC(=O)C3CCCCC3)C(O)C2O)c(=O)n1` (stereo not drawn) returned a logD of 0.8.

Compound `CC(C)(C)C(=O)OC[C@H]1O[C@@H](n2ccc(N)nc2=O)[C@@H](O)[C@@H]1O` had a logD of 0.1.

A short description of another data set: method code SF-GLC, from DOI: 10.1016/0048-3575(76)90072-9.
Conditions: not given
With `CCOC(=O)CN(C(=O)CCl)c1ccccc1CC`, the logP worked out at 2.57.

`CCOC(=O)CN(C(=O)CCl)c1c(CC)cccc1CC` displayed a logP of 3.17.

Turning to `CCOC(=O)CN(C(=O)CCl)c1ccccc1Cl`, the log partition coefficient (logP) was 2.3.

The compound `CCOC(=O)CN(C(=O)CCl)c1ccccc1OC` registered a logP of 1.78.

Another data set can be described thus: method code SF-AS, from DOI: 10.1135/cccc19881862. The note with it: pH 3.4.
On to `O=C(O)C(OCc1ccc(Cl)cc1)c1ccccc1` (stereo not drawn), for which the logD was determined as 2.6.

Staying with this data set, now noted: pH 3.5.
`CC(CC(=O)c1ccc(-c2ccc(-c3ccccc3)cc2)cc1)C(=O)O` (stereo not drawn): the logD was 3.4.

As for `CC(CC(=O)O)CC(=O)c1ccc(-c2ccc(-c3ccccc3)cc2)cc1` (stereo not drawn), the logD is 3.82.

With `CC(CC(=O)c1ccc(-c2ccc(-c3ccc(F)cc3F)cc2)cc1)C(=O)O` (stereo not drawn), the pH-dependent lipophilicity (logD) was determined as 3.78.

Assay in a further data set: not given
As to conditions: pH 3.0.
`N#CC(C#N)=NNc1ccc(/N=N/c2ccccc2)cc1` showed a logD of 4.25.

In the case of `N#CC(C#N)=NNc1ccc(OC(F)(F)F)cc1`, the logD was 3.68.

The compound `CC(=O)Nc1ccc(NN=C(C#N)C#N)cc1` showed a logD of 1.83.

The data set is the same for the next values; noted with them: pH 7.2.
In the case of `N#CC(C#N)=NNc1ccc(CCCl)cc1`, the logD turned out to be 2.44.

Assay in another data set: not given
Conditions: not given
This is another data set of the same source.
`Clc1ccccc1-c1cccc(Cl)c1Cl` returned a logP of 5.31.

In the case of `Clc1cccc(-c2ccccc2Cl)c1`, the logP stood at 5.02.

The compound `Clc1cccc(-c2cccc(Cl)c2Cl)c1` had a logP of 5.57.

For `Clc1ccc(-c2c(Cl)ccc(Cl)c2Cl)c(Cl)c1`, the logP was 6.31.

Assay in another data set: not given
Conditions: not given
The source holds these as a separate data set.
Compound `O=C(Oc1ccc([N+](=O)[O-])cc1)C1OC(O)C(O)C(O)C1O` (stereo not drawn) had a logP of -0.45.

For the compound `O=C(Oc1ccc(Cl)cc1)C1OC(O)C(O)C(O)C1O` (stereo not drawn), the logP was 0.45.

The compound `O=C(Oc1ccc(F)cc1)C1OC(O)C(O)C(O)C1O` (stereo not drawn) yielded a logP of -0.42.

In turn, `O=C(Oc1ccc2ccccc2c1)C1OC(O)C(O)C(O)C1O` (stereo not drawn) yielded a logP of 1.39.
